Laboratory results as given in patent US7612087B2, “Heterocyclic compounds as inhibitors of beta-lactamases” (Novexel, priority 2002, dated 2009).

Legend:
[1] = target: T1, β-lactamase TEM1 (Escherichia coli, UniProt P62593); test: Inhibition of isolated β-lactamase Tem-1 (Nitrocefin hydrolysis); format: biochemical, E.coli 250HT21; settings: 100 μM Nitrocefin, 50 mM sodium phosphate buffer pH7.0, 37° C.
T1 construct: The β-lactamases are isolated from bacterial strains which are resistant to penicillins and cephalosporins; endogenous in cells; host or cells: E. coli 250HT21 (natural producer; French-press lysate, 100,000 g supernatant)
T1 sequence (P62593 24-286 limits assumed): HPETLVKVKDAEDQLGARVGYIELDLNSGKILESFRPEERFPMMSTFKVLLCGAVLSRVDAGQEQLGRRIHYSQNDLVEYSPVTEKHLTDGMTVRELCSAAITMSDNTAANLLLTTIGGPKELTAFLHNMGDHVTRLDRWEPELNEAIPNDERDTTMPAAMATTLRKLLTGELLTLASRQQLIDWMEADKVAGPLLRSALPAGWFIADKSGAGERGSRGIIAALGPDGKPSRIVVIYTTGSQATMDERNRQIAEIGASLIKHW
How it was run: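 TEM-1 from soluble extract of E. coli 250HT21, normalized enzyme, 100 μM Nitrocefin in 50 mM sodium phosphate pH 7.0 at 37 °C. Initial-rate hydrolysis read kinetically at 485 nm, with and without 5 min enzyme–inhibitor preincubation. CI50 from 6 or 8 concentrations in duplicate.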

[2] = target: T2, β-lactamase P99 (Enterobacter cloacae, UniProt P05364); test: biochemical; settings: 100 μM Nitrocefin, 50 mM sodium phosphate buffer pH7.0, 37° C.; read-out: IC50 nM/P99
T2 construct: The β-lactamases are isolated from bacterial strains which are resistant to penicillins and cephalosporins; endogenous in cells; host or cells: Enterobacter cloacae 293HT6 (natural producer; French-press lysate, 100,000 g supernatant)
T2 sequence (P05364 21-381): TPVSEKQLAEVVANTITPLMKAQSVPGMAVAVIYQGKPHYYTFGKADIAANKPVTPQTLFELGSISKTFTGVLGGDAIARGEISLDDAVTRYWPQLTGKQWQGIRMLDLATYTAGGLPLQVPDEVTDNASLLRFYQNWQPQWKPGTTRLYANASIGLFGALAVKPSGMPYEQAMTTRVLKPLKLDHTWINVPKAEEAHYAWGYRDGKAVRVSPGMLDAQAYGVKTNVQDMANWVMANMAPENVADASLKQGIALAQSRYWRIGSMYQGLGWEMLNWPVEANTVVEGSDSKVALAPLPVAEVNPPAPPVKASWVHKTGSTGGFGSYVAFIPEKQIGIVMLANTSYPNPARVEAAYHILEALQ
How it was run: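 P99 β-lactamase, taken from the soluble fraction of an Enterobacter cloacae 293HT6 lysate, was assayed at 37° C. in 50 mM sodium phosphate buffer pH7.0 with 100 μM Nitrocefin as the chromogenic substrate. Hydrolysis was followed kinetically at 485 nm at initial speed, with and without a 5 mn enzyme–inhibitor preincubation. Inhibitors were tested at 6 or 8 concentrations in duplicate, and IC50 was fitted with GraFit.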

[3] = tested on: E. coli 250CF1 (Tem3); test: microbe, parasite or virus in culture; format: cell-based; settings: compound at 5 mg/l, 24 hours at 37° C.; for MIC of Cefotaxime in combination with the compound: Trial 4, 250CF1 E. coli Tem3; for MIC of Piperacillin in combination with the compound: Trial 4, 250CF1 Tem3
How it was run: (§1)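 Strains were seeded into liquid-medium dilutions of β-lactamine, each supplemented with a fixed 5 mg/l of test compound, and held 24 hours at 37° C in a heating chamber. Minimal inhibitory concentration was the level at which bacterial development was wholly absent.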

[4] = tested on: E. cloacae 293HT6 (Class C); test: MIC, micro-dilution in liquid medium, β-lactamine with product at 5 mg/l; format: cell-based; settings: compound at 5 mg/l, 24 hours at 37° C.; for MIC of Piperacillin in combination with the compound: Trial 9, 293HT6 Class; for MIC of Cefotaxime in combination with the compound: Trial 9, 293HT6 E. cloacae Class C
How it was run: as §1

[5] = tested on: E. coli 250BE1 (SHV4); test: as above; format: cell-based; settings: compound at 5 mg/l, 24 hours at 37° C.; for MIC of Cefotaxime in combination with the compound: Trial 7, 250BE1 E. coli SHV4; for MIC of Piperacillin in combination with the compound: Trial 7, 250BE1 SHV4
How it was run: as §1

[6] = tested on: E. coli 250HT21 (Tem1); test: as above; format: cell-based; settings: compound at 5 mg/l, 24 hours at 37° C.; for MIC of Cefotaxime in combination with the compound: Trial 2, 250HT21 E. coli Tem1; for MIC of Piperacillin in combination with the compound: Trial 2, 250HT21 Tem1
How it was run: as §1

[7] = tested on: E. coli 250HT22 (Tem2); test: as above; format: cell-based; settings: compound at 5 mg/l, 24 hours at 37° C.; for MIC of Cefotaxime in combination with the compound: Trial 3, 250HT22 E. coli Tem2; for MIC of Piperacillin in combination with the compound: Trial 3, 250HT22 Tem2
How it was run: as §1

[8] = tested on: E. coli 250HT23 (Class D); test: as above; format: cell-based; settings: compound at 5 mg/l, 24 hours at 37° C.; for MIC of Piperacillin in combination with the compound: Trial 8, 250HT23 Class D; for MIC of Cefotaxime in combination with the compound: Trial 8, 250HT23 E. coli Class D
How it was run: as §1

[9] = tested on: E. coli 250HT26 (SHV1); test: as above; format: cell-based; settings: compound at 5 mg/l, 24 hours at 37° C.; for MIC of Cefotaxime in combination with the compound: Trial 6, 250HT26 E. coli SHV1; for MIC of Piperacillin in combination with the compound: Trial 6, 250HT26 SHV1
How it was run: as §1

[10] = tested on: E. coli 250SJ1 (Tem7); test: as above; format: cell-based; settings: compound at 5 mg/l, 24 hours at 37° C.; for MIC of Cefotaxime in combination with the compound: Trial 5, 250SJ1 E. coli Tem7; for MIC of Piperacillin in combination with the compound: Trial 5, 250SJ1 Tem7
How it was run: as §1

[11] = tested on: P. aeruginosa 391HT7 (PSE); test: as above; format: cell-based; settings: compound at 5 mg/l, 24 hours at 37° C.; for MIC of Cefotaxime in combination with the compound: Trial 11, 391HT7 P. aeruginosa PSE; for MIC of Piperacillin in combination with the compound: Trial 11, 391HT7 PSE
How it was run: as §1

[12] = tested on: P. aeruginosa 391HT8 (PSE); test: as above; format: cell-based; settings: compound at 5 mg/l, 24 hours at 37° C.; for MIC of Cefotaxime in combination with the compound: Trial 12, 391HT8 P. aeruginosa PSE; for MIC of Piperacillin in combination with the compound: Trial 12, 391HT8 PSE
How it was run: as §1

[13] = tested on: S. aureus 011GO66 (PeniR); test: as above; format: cell-based; settings: compound at 5 mg/l, 24 hours at 37° C.; for MIC of Cefotaxime in combination with the compound: Trial 1, 011GO66 S. aureus PeniR; for MIC of Piperacillin in combination with the compound: Trial 1, 011GO66 peniR
How it was run: as §1

[14] = tested on: Serratia 301HT6; test: as above; format: cell-based; settings: compound at 5 mg/l; Trial 10, 301HT6 Serratia; 24 hours at 37° C.
How it was run: as §1

SMILES | IC50 [1] | IC50 [2] | MIC of Cefotaxime in combination with the compound [3] | MIC of Piperacillin in combination with the compound [3] | MIC of Piperacillin in combination with the compound [4] | MIC of Cefotaxime in combination with the compound [4] | MIC of Cefotaxime in combination with the compound [5] | MIC of Piperacillin in combination with the compound [5] | MIC of Cefotaxime in combination with the compound [6] | MIC of Piperacillin in combination with the compound [6] | MIC of Cefotaxime in combination with the compound [7] | MIC of Piperacillin in combination with the compound [7] | MIC of Piperacillin in combination with the compound [8] | MIC of Cefotaxime in combination with the compound [8] | MIC of Cefotaxime in combination with the compound [9] | MIC of Piperacillin in combination with the compound [9] | MIC of Cefotaxime in combination with the compound [10] | MIC of Piperacillin in combination with the compound [10] | MIC of Cefotaxime in combination with the compound [11] | MIC of Piperacillin in combination with the compound [11] | also measured
O=C(NCc1ccncc1)[C@H]1CC[C@@H]2CN1C(=O)N2OS(=O)(=O)[O-].[Na+] (relative stereo) [Example 42, sodium salt of trans-7-oxo-N-[(4-pyridinyl)methyl]-6-(sulphooxy)-1,6-diazabicyclo[3.2.1]octane-2-carboxamide] | 25 nM | 70 nM | <=0.04 μg/ml | 2.5 µg/mL | 1.2 µg/mL | 0.3 µg/mL | <=0.04 μg/ml | 5 µg/mL | <=0.04 μg/ml | 1.2 µg/mL | <=0.04 μg/ml | 2.5 µg/mL | 5 µg/mL | <=0.04 μg/ml | <=0.04 μg/ml | 5 µg/mL | <=0.04 μg/ml | 2.5 µg/mL | 20 µg/mL | >40 µg/mL | MIC of Cefotaxime in combination with the compound [12]: 20 µg/mL; MIC of Piperacillin in combination with the compound [12]: >40 µg/mL; MIC of Cefotaxime in combination with the compound [13]: 2.5 µg/mL; MIC of Piperacillin in combination with the compound [13]: 1.2 µg/mL; MIC of Cefotaxime in combination with the compound [14]: <=0.04 μg/ml; MIC of Piperacillin in combination with the compound [14]: 0.6 µg/mL
O=C(NCc1ccccc1)[C@H]1CC[C@@H]2CN1C(=O)N2OS(=O)(=O)[O-].[Na+] (relative stereo) [Example 34, sodium salt of trans-7-oxo-N-(phenylmethyl)-6-(sulphooxy)-1,6-diazabicyclo[3.2.1]octane-2-carboxamide] | 27 nM | 32 nM | 0.15 µg/mL | >40 µg/mL | 10 µg/mL | 0.6 µg/mL | 0.08 µg/mL | >40 µg/mL | <=0.04 μg/ml | 5 µg/mL | <=0.04 μg/ml | >40 µg/mL | 40 µg/mL | <=0.04 μg/ml | <=0.04 μg/ml | 20 µg/mL | <=0.04 μg/ml | >40 µg/mL | 20 µg/mL | >40 µg/mL | MIC of Cefotaxime in combination with the compound [12]: 20 µg/mL; MIC of Piperacillin in combination with the compound [12]: >40 µg/mL; MIC of Cefotaxime in combination with the compound [13]: 1.2 µg/mL; MIC of Piperacillin in combination with the compound [13]: 0.6 µg/mL; MIC of Cefotaxime in combination with the compound [14]: <=0.04 μg/ml; MIC of Piperacillin in combination with the compound [14]: 1.2 µg/mL
O=C(NCCc1ccncc1)[C@H]1CC[C@@H]2CN1C(=O)N2OS(=O)(=O)[O-].[Na+] (relative stereo) [Example 37, sodium salt of trans-7-oxo-N-[2-(4-pyridinyl)ethyl]-6-(sulphooxy)-1,6-diazabicyclo[3.2.1]octane-2-carboxamide] | 29 nM | 160 nM | 0.3 µg/mL | 40 µg/mL | 40 µg/mL | >40 µg/mL | 0.6 µg/mL | >40 µg/mL | <=0.04 μg/ml | 2.5 µg/mL | <=0.04 μg/ml | >40 µg/mL | 40 µg/mL | <=0.04 μg/ml | <=0.04 μg/ml | 20 µg/mL | 0.08 µg/mL | >40 µg/mL | 20 µg/mL | >40 µg/mL | MIC of Cefotaxime in combination with the compound [12]: 20 µg/mL; MIC of Piperacillin in combination with the compound [12]: >40 µg/mL; MIC of Cefotaxime in combination with the compound [13]: 1.2 µg/mL; MIC of Piperacillin in combination with the compound [13]: 0.6 µg/mL; MIC of Cefotaxime in combination with the compound [14]: 0.08 µg/mL; MIC of Piperacillin in combination with the compound [14]: 2.5 µg/mL
